Experimental findings from patent US20140364445A1, “PHARMACEUTICAL COMPOSITION COMPRISING A TRPA1 ANTAGONIST AND AN ANTICHOLINERGIC AGENT” (GLENMARK PHARMACEUTICALS S.A., priority 2011, published 2014) are described below.

Where two headings read alike, the source gives them in different places.

The subject of assay [1] is LPS induced neutrophilia. The assay can be described thus: LPS induced neutrophilia, Compound 52 and aclidinium bromide. Format: in vivo, male SD rats. To be noted: BAL 4 h after LPS, Compound 52 3 mg/kg p.o., aclidinium 50 mcg/ml inh; for inhibition at 3 mg/kg: Rattus norvegicus, Neutrophil, po, read-out: No of neutrophils, % inhibition (mean ± S.E.M.) (converted). The method, then: The effect of combination of Compound 52 and aclidinium bromide on LPS induced neutrophilia in male SD rats was evaluated. Animals were grouped as mentioned in Table 4.
LPS was nebulized at concentration of 100 mcg ml^−1 for 40 min at 0.4 ml/min and a pressure of 1.7 psig in a Perspex exposure chamber (1.5×1×1 ft) fitted with nebulizer (RCI Hudson). Control animals were given saline exposure under similar conditions. All the animals were treated with compounds as mentioned in Table 4. Compound 52 (3 mg/kg/5 ml) was administered orally 2 h prior to LPS and aclidinium (50 mcg/ml) was nebulized at the rate of 0.05 ml/min and exposed to the animals for 3 min prior LPS exposure.
Bronchoalveolar lavage (BAL) was done after 4 h of LPS exposure. Animals were anesthetized with urethane (1.2 gm/kg/5 mL, i.p. in normal saline) and BAL was done with PBS (3 ml). This procedure was repeated three times and the BAL fluid was pooled for the measurement of total leukocyte. Remaining BAL fluid was centrifuged immediately at 4000 rpm for 20 min. The pellet formed in the bottom of the tube was used for the smear preparation for differential leukocyte count estimation. The smeared slides were fixed by alcohol and stained using Leishman's stain further carried for differential leukocyte count.

For assay [2], the system named is LPS induced neutrophilia. The assay can be described thus: LPS induced neutrophilia, Compound 52 and ipratropium bromide. Format: in vivo, male SD rats. To be noted: for inhibition at 6 mg/kg: Rattus norvegicus, Neutrophil, po. The method, then: Animals were grouped as mentioned in Table 8. LPS at a concentration of 100 mcg ml^−1 was nebulized for 40 min at 0.4 ml/min and a pressure of 1.7 psig in a Perspex exposure chamber (1.5×1×1 ft) fitted with nebulizer (RCI Hudson). Control animals were given saline exposure under similar conditions. All the animals were treated as mentioned in Table 8. […] Bronchoalveolar lavage (BAL) was done after 4 h of LPS exposure. Animals were anesthetized with urethane (1.2 gm/kg/5 mL, i.p. in normal saline) and BAL was done with PBS (3 ml). This procedure was repeated three times and the BAL fluid was pooled for the measurement of total leukocyte. Remaining BAL fluid was centrifuged at 4000 rpm for 20 min. The pellet formed in the bottom of the tube was used for the smear preparation for differential leukocyte count estimation. The differential leukocyte count was done using Leishman's stain. […] Statistical significance was set at p<0.05.

For assay [3], the system named is LPS induced neutrophilia. Description: LPS induced neutrophilia, Compound 52 and tiotropium. Format: in vivo, female SD rats. As to conditions: for inhibition at 3 mg/kg: Rattus norvegicus, Neutrophil, po. The method, then: The effect of combination of Compound 52 and tiotropium on LPS induced neutrophilia in female SD rats was evaluated. Female SD rats were grouped as mentioned in Table 6. Compound 52 (3 mg/kg/5 ml) and tiotropium (1 mcg/ml as inhalation for 3 min at the rate of 0.05 ml/min) were administered 2 and 1 hour prior to LPS exposure respectively. LPS was nebulized at concentration of 100 mcg ml^−1 for 40 min at 0.4 ml min^−1 and a pressure of 1.7 psig in a perspex exposure chamber (1.5×1×1 ft) fitted with nebulizer (RCI Hudson). Control animals were given saline exposure under similar conditions.
Bronchoalveolar lavage (BAL) was done after 4 h of LPS exposure. Animal was anesthetized with urethane (1.2 gm/kg/5 mL, i.p. in normal saline) and BAL was done with PBS (3 ml). This procedure was repeated three times and the BAL fluid was pooled for the measurement of total leukocyte. BAL fluid was centrifuged immediately at 4000 rpm for 20 min and the pellet formed in the bottom of the tube was used for the smear preparation for differential leukocyte count estimation.

The subject of assay [4] is methacholine-induced bronchoconstriction. The assay can be described thus: Methacholine challenge test (methacholine-induced bronchoconstriction), invasive whole body plethysmograph. As to conditions: for inhibition at 10 mg/kg: Cavia porcellus, read-out: % inhibition in airway resistance (Mean ± SEM). Format: in vivo, male Dunkin Hartley guinea pig. The procedure: The effect of Compound 52, tiotropium bromide and their combination on methacholine challenge test in male Dunkin Hartley guinea pig was evaluated using invasive whole body plethysmograph (Elan™ R C, Buxco apparatus). Animals and grouped as described in Table 2.
Animals were anesthetized by intraperitonial injection of urethane (1 g/kg). The surgical process carried out in the aseptic area. Right jugular vein of anesthetized animal was exposed and cannulated with fine bore polythene tube. Trachea was also cannulated for artificial respiration and to measure airway resistance. The prepared animal was fixed in the invasive whole body plethysmograph with artificial respiration (tidal volume −7 ml). Methacholine challenge test was performed and the recordings were taken by the following schedule. • First log period: Baseline −5 min • Second log period: Normal saline −3 min • Third log period: Methacholine −3 min
This protocol was performed for all groups. Compound 52 (10 mg/kg, i.p.) was injected 4 hour prior to methacholine challenge. Tiotropium (0.5 mcg/kg, i.v) was given at second log period. In third log period, the animal was injected with methacholine (60 mcg/kg/2 ml, i.v). The methacholine induced bronchoconstriction (expressed as airway resistance (RI value in cmH2O*sec/ml)) was recorded by Buxco apparatus.

Assay [5] addresses T1, human TRPA1 receptor (Homo sapiens, UniProt O75762).
T1 construct: expressed in transfected cells; host or cells: CHO cells
The assay can be described thus: Inhibition of AITC induced cellular uptake of radioactive calcium in human TRPA1 expressing CHO cells. Type of assay: cell-based. To be noted: read-out: hTRPA1 IC50 values. The method, then:
The human IC50 values were measured by the following method:
The inhibition of TRPA1 receptor activation was measured as inhibition of allylisothiocyanate (AITC) induced cellular uptake of radioactive calcium.

Setting [6] is: BAL 4 h after LPS, Compound 52 6 mg/kg p.o., ipratropium 1 mg/ml inh.
[7] abbreviates: BAL 4 h after LPS, Compound 52 3 mg/kg p.o., tiotropium 1 mcg/ml inh.
[8] abbreviates: Compound 52 10 mg/kg i.p. 4 hour prior, tiotropium bromide 0.5 mcg/kg i.v., methacholine 60 mcg/kg i.v.
The mark [9] stands for this setting: 4 h, read-out: No of neutrophils, % inhibition (mean ± S.E.M.).

T1 sequence (O75762 whole entry): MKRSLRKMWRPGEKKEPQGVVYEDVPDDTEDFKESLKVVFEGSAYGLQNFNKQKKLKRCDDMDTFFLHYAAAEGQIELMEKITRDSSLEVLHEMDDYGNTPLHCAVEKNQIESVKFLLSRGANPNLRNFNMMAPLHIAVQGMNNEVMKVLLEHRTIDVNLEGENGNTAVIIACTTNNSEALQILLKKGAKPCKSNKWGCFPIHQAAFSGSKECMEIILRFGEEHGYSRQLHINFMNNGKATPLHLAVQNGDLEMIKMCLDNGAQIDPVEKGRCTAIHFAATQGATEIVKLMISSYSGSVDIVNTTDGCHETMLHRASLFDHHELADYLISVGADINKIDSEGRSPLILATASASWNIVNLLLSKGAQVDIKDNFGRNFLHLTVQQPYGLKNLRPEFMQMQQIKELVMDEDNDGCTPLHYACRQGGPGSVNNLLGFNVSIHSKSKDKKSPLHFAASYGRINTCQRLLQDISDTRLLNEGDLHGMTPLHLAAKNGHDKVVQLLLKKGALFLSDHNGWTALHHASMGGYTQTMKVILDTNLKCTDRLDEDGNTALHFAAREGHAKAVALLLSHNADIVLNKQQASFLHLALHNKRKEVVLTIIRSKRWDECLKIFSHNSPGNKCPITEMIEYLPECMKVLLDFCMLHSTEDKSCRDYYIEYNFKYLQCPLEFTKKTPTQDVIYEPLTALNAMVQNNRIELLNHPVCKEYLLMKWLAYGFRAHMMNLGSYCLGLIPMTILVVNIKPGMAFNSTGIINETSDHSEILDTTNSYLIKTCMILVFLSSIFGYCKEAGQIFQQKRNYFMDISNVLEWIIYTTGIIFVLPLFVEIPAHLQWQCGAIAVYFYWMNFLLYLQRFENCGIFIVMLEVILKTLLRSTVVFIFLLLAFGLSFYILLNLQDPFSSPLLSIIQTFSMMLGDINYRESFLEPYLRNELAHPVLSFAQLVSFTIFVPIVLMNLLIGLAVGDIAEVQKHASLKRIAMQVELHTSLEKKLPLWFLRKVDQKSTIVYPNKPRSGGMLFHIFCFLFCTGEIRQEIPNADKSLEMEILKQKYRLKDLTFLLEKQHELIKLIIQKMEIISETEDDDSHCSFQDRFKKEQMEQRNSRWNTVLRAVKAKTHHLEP

Consider `O=C(O[C@H]1C[N+]2(CCCOc3ccccc3)CCC1CC2)C(O)(c1cccs1)c1cccs1.[Br-]` [Aclidinium bromide, [(8R)-1-(3-phenoxypropyl)-1-azoniabicyclo[2.2.2]octan-8-yl]2-hydroxy-2,2-dithiophen-2-ylacetate bromide, reference compound], for which, in assay [1], the “No of neutrophils (mean ± S.E.M.)” value stood at 7.13 ± 1.03 and the inhibition (usually the drop in the measured response relative to a control, in per cent) at 3 mg/kg is 21.1%.
On to `Cn1c(=O)c2c(CC(=O)Nc3nc(-c4ccc(F)c(C(F)(F)F)c4F)cs3)csc2n(C)c1=O` [Compound 52], for which the “No of neutrophils (mean ± S.E.M.)” value was 8.4 ± 0.8 in assay [2] (setting [6]), 6.73 ± 0.72 in assay [1] and 6.7 ± 0.9 in assay [3] (setting [7]). Moreover, the inhibition at 6 mg/kg in assay [2] (BAL 4 h after LPS, Compound 52 6 mg/kg p.o., ipratropium 1 mg/ml inh, read-out: No of neutrophils, % inhibition (mean ± S.E.M.) (converted)) is -3.2%. The inhibition at 3 mg/kg in assay [1] was 20.4%; in assay [3] (BAL 4 h after LPS, Compound 52 3 mg/kg p.o., tiotropium 1 mcg/ml inh, read-out: No of neutrophils, % inhibition (mean ± S.E.M.) (converted)) it was 17.9%. The inhibition at 10 mg/kg in assay [4] (setting [8]) is 37.9 ± 6.7%. For the same molecule, in assay [4] (setting [8]), the “Mean airway resistance (Mean ± SEM)” value is reported as 0.77 ± 0.11 cmH2O*sec/ml.
As to `Cn1c(=O)c2c(CC(=O)/N=c3\scc(-c4ccc(F)c(C(F)(F)F)c4F)n3COP(=O)(O)O)csc2n(C)c1=O` [Compound 96], in assay [5], the IC50 – broadly, the concentration needed to halve the response being measured – was found to be 559 nM.
In the case of `CC(C)[N+]1(C)[C@@H]2CC[C@H]1C[C@@H](OC(=O)C(CO)c1ccccc1)C2` (some centres unmarked) [Ipratropium bromide, 8-azoniabicyclo (3.2.1) octane, 3-(3-hydroxy-1-oxo-2-phenylpropoxy)-8-methyl-8-(1-methylethyl)-, bromide monohydrate, reference compound], the “No of neutrophils (mean ± S.E.M.)” value in assay [2] (setting [6]) was found to be 6.2 ± 0.6. Moreover, in assay [2] (setting [9]), the inhibition at 6 mg/kg is 23%.
As to `C[N+]1(C)[C@@H]2C[C@@H](OC(=O)C(O)(c3cccs3)c3cccs3)C[C@H]1[C@@H]1O[C@@H]12` [Tiotropium bromide, (1α, 2β, 4β, 5α, 7β)-7-[(hydroxydi-2-thienylacetyl)oxy]-9,9-dimethyl-3-oxa-9-azoniatricyclo[3.3.1.02,4] nonane bromide monohydrate, reference compound], the “No of neutrophils (mean ± S.E.M.)” value in assay [3] (setting [7]) is listed as 6.8 ± 0.7. Besides, the inhibition at 3 mg/kg in assay [3] (setting [9]) is 18.9%. In addition, in assay [4], the inhibition at 10 mg/kg is -10.7 ± 23.4%. The “Mean airway resistance (Mean ± SEM)” value in assay [4] (setting [8]) turned out to be 1.51 ± 0.32 cmH2O*sec/ml.
